The source of these data is patent US20100261719A1, “CHEMICAL COMPOUNDS” (priority 2007, published 2010).

A word on the IC50: it is the midpoint of a concentration-inhibition curve. Lower therefore signals higher potency.

For one test, the system named is Sau516. Put plainly: Bacterial susceptibility testing (MIC), Sau516. Type of test: cell-based. Particulars: Staphylococcus aureus, liquid media, 37° C., 24 hours, lowest concentration reducing growth by 80% or more. From the text: (§1) Compounds may be tested for antimicrobial activity by susceptibility testing in liquid media in a 96 well format. Compounds may be dissolved in dimethylsulfoxide and tested in 10 doubling dilutions in the susceptibility assays. The organisms used in the assay may be grown overnight on suitable agar media and then suspended in a liquid medium appropriate for the growth of the organism. The suspension may be a 0.5 McFarland and a further 1 in 10 dilution may be advantageously made into the same liquid medium to prepare the final organism suspension in 100 μL. Plates may be incubated under appropriate conditions at 37° C. for 24 hours prior to reading. The Minimum Inhibitory Concentration (MIC) is intended to refer to the lowest drug concentration able to reduce growth by 80% or more.
(§2) Compounds may be evaluated against organisms such as Gram-positive species, including Staphylococcus aureus, Streptococcus pneumoniae, and Streptococcus pyogenes; and Gram-negative species including Haemophilus influenzae, and Moraxella catarrhalis.

Another test has as its system Sau517. Put plainly: Bacterial susceptibility testing (MIC), Sau517. Type of test: cell-based. Particulars: Staphylococcus aureus, liquid media, 37° C., 24 hours, lowest concentration reducing growth by 80% or more.
From the text: as §1, §2

Another test deals with Spy838. Put plainly: Bacterial susceptibility testing (MIC), Spy838. Type of test: cell-based. Particulars: Streptococcus pyogenes, liquid media, 37° C., 24 hours, lowest concentration reducing growth by 80% or more.
From the text: as §1, §2

The test system of the next test is Spn548. Put plainly: Bacterial susceptibility testing (MIC), Spn548. As to conditions: Streptococcus pneumoniae, liquid media, 37° C., 24 hours, lowest concentration reducing growth by 80% or more. Type of test: cell-based.
From the text: as §1, §2

The next test deals with Spn538. Put plainly: Bacterial susceptibility testing (MIC), Spn538. Type of test: cell-based. Particulars: Streptococcus pneumoniae, liquid media, 37° C., 24 hours, lowest concentration reducing growth by 80% or more.
From the text: as §1, §2

The subject of another test is Hin446. Put plainly: Bacterial susceptibility testing (MIC), Hin446. Type of test: cell-based. As to conditions: Haemophilus influenzae, liquid media, 37° C., 24 hours, lowest concentration reducing growth by 80% or more.
From the text: as §1, §2

The test system of another test is Hin737. Put plainly: Bacterial susceptibility testing (MIC), Hin737. Particulars: Haemophilus influenzae, liquid media, 37° C., 24 hours, lowest concentration reducing growth by 80% or more. Type of test: cell-based.
From the text: as §1, §2

The next test relates to Hin158. Put plainly: Bacterial susceptibility testing (MIC), Hin158. Particulars: Haemophilus influenzae, liquid media, 37° C., 24 hours, lowest concentration reducing growth by 80% or more. Type of test: cell-based.
From the text: as §1, §2

In another test the test system is Mca445. Put plainly: Bacterial susceptibility testing (MIC), Mca445. Type of test: cell-based. Particulars: Moraxella catarrhalis, liquid media, 37° C., 24 hours, lowest concentration reducing growth by 80% or more.
From the text: as §1, §2

Test [1] concerns the target Escherichia coli DNA gyrase A/B tetramer (Escherichia coli, UniProt P0AES4+P0AES6). Put plainly: DNA gyrase supercoiling activity fluorescence polarisation assay. Type of test: biochemical. In a few lines:
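5 nM gyrase supercoils 130 μg/ml relaxed triplex-sequence plasmid with 0.3 mM ATP in Tris pH 7.5/KCl/MgCl2/spermidine buffer, 0.8% DMSO, ~30 min at ambient temperature, 5-10 compound concentrations. Quenched with 40 nM BODIPY-FL triplex probe at pH 3.5; anisotropy read after 60 min (485/535 nm). IC50 by nonlinear regression against no-compound and 5 uM ciprofloxacin controls.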

≈ marks a conversion by molar mass, not a printed value.

Chain of Escherichia coli DNA gyrase A/B tetramer (P0AES4 whole entry, one chain of several): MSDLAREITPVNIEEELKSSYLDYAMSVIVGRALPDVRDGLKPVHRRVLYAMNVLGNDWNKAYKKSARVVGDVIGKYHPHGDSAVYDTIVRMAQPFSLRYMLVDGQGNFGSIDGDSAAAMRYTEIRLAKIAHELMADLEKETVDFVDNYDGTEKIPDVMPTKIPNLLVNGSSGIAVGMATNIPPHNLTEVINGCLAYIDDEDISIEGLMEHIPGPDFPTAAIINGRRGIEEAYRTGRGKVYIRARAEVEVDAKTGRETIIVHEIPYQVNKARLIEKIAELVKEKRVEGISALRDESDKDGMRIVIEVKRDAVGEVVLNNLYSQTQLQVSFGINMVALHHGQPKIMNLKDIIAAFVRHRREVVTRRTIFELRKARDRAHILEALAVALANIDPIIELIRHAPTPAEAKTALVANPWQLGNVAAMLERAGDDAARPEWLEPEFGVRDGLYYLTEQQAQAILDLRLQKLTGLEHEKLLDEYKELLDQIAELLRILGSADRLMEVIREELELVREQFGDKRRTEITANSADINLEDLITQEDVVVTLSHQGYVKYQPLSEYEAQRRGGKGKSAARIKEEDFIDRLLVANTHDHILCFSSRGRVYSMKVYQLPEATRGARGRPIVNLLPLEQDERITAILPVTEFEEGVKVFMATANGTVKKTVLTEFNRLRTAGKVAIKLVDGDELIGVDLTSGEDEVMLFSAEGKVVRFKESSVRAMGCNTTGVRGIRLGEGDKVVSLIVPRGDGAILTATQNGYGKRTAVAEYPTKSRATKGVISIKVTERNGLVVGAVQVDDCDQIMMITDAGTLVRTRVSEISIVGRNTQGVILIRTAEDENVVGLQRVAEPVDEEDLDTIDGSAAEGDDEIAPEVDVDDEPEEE

For `C[C@@H]1CN2c3ccc(C#C[Si](C)(C)C)cc3CC3(C(=O)NC(=O)NC3=O)[C@H]2[C@H](C)O1` (racemic) [Example 1, (2R,4S,4aS)-rel-2,4-Dimethyl-8-((trimethylsilypethynyl)-2,4,4a,6-tetrahydro-1H,1′H-spiro[[1,4]oxazino[4,3-a]quinoline-5,5′-pyrimidine]-2′,4′,6′(3′H)-trion], the MIC in the test on Sau516 came to 8 µg/mL (≈ 18.8 µM); in the test on Sau517, 8 µg/mL (≈ 18.8 µM); in the test on Spy838 it was 16 µg/mL (≈ 37.6 µM); in the test on Spn548, 16 µg/mL (≈ 37.6 µM); against Spn538, 32 µg/mL (≈ 75.2 µM); against Hin446, 4 µg/mL (≈ 9.4 µM). The MIC in the test on Hin737 came out at 16 µg/mL (≈ 37.6 µM); with Hin158, 0.13 µg/mL (≈ 0.305 µM); with Mca445, 2 µg/mL (≈ 4.7 µM). For the same compound, in test [1], the IC50 was 7.57 µM.
